Reference: patent US20220125763A1, “COMPOSITIONS PROVIDING ENHANCED ANTIBACTERIAL ACTIVITY AGAINST GRAM-POSITIVE BACTERIA AND USE THEREOF” (ANIFERA LIMITED, priority 2019, published 2022)

What was measured:
Experiment in all cases: Minimum inhibitory concentration of antibiotic with or without imidazole compound
Type in all cases: cell-based
Staphylococcus aureus B8 = details: S. aureus B8
Experimental: (§1) Exemplary embodiments of a 2-(substituted-amino)-imidazole compound in combination with an antibiotic compound were tested to evaluate the effect on minimum inhibitory concentration (MIC).
(§2) In these experiments, a frozen stock of the bacterial strain was streaked onto a sterile brain heart infusion agar plate and incubated at 37° C. for 16-20 hours. After the incubation period, three to five well-isolated bacterial colonies of the same morphologic type were taken from the brain heart infusion agar plate culture and used to inoculate, using a sterile loop, a tube containing 4 mL to 5 mL of cation adjusted Mueller Hinton (MHII) broth. The culture was allowed to grow in a shaking incubator at 220 rpm at 37° C. until the culture reached logarithmic phase, as determined by the measuring of and achieving an optical density (OD) of 0.3 to 0.5 measured at 600 nm. The bacterial concentration of the culture was then adjusted with the addition of MHII broth to achieve the equivalent of 1×10^6 colony-forming unit (CFU)/mL using the approximation that 1×10^9 CFU/mL is equal to OD600 nm=1. Cells were then treated with the designated amount of test compound (shown in Table 1) or a solvent control (dimethyl sulfoxide) for 30 minutes at ambient conditions. Cells were then transferred into 96-well round bottom plates and exposed to 2-fold serial dilutions of the denoted antibiotic.

[1] = tested on: Coagulase-negative staphylococci CN8
Experimental: as §1, §2

[2] = tested on: Coagulase-negative staphylococci CN58
Experimental: as §1, §2

[3] = tested on: Coagulase-negative staphylococci CN74
Experimental: as §1, §2

[4] = tested on: Staphylococcus aureus Xen30; details: S. aureus Xen30
Experimental: as §1, §2

[5] = tested on: Staphylococcus aureus B12; details: S. aureus B12
Experimental: as §1, §2

## CC(C)Nc1ncc(-c2cccc(NC(=O)Nc3ccc(Cl)c(Cl)c3)c2)[nH]1 [Compound 1, 1-(3,4-dichlorophenyl)-3-(3-(2-(Isopropylamino)-1H-Imidazol-5-yl)phenyl)urea]
Staphylococcus aureus B8; +Compound 1 at 2 μM
  Minimum Inhibitory Concentration of penicillin: 2 µg/mL
[1]; +Compound 1 at 2 μM
  Minimum Inhibitory Concentration of penicillin: 0.125 µg/mL
[2]; +Compound 1 at 2 μM
  Minimum Inhibitory Concentration of penicillin: 0.125 µg/mL
[3]; +Compound 1 at 2 μM
  Minimum Inhibitory Concentration of penicillin: 0.5 µg/mL
[4]; +Compound 1 at 4 μM
  Minimum Inhibitory Concentration of penicillin: 8 µg/mL
[5]; +Compound 1 at 2 μM
  Minimum Inhibitory Concentration of penicillin: 1 µg/mL

## Cc1onc(-c2ccccc2)c1C(=O)N[C@@H]1C(=O)N2[C@@H]1SC(C)(C)[C@@H]2C(=O)O [Oxacillin]
[4]; Staphylococcus aureus, No imidazole compound, read-out: Minimum Inhibitory Concentration of Oxacillin
  MIC: 128 µg/mL

## penicillin
Staphylococcus aureus B8; No imidazole compound
  Minimum Inhibitory Concentration of penicillin: 64 µg/mL
[1]; No imidazole compound
  Minimum Inhibitory Concentration of penicillin: 2 µg/mL
[2]; No imidazole compound
  Minimum Inhibitory Concentration of penicillin: 32 µg/mL
[3]; No imidazole compound
  Minimum Inhibitory Concentration of penicillin: 8 µg/mL
[4]; No imidazole compound
  Minimum Inhibitory Concentration of penicillin: 128 µg/mL
[5]; No imidazole compound
  Minimum Inhibitory Concentration of penicillin: 16 µg/mL
